The test has as its target CXCR3 (Macaca fascicularis, UniProt A0A2K5UV19). Nature of the test: functional cellular assay measuring calcium flux in CXCR3 transfected cells (block of CXCR3/IP-10 interaction). It is filed as cell-based. The note with it: IP-10 induced intracellular calcium flux; Cyno-CHO cells stably expressing recombinant CXCR3 and G-alpha-16. The protocol: Compounds are assessed for the ability to block the interaction of CXCR3 and IP-10 in a functional cellular assay measuring calcium flux in CXCR3 transfected cells.
Cyno-CHO cells, stably expressing recombinant CXCR3 and G-alpha-16 are grown in F12 medium (Mediatech #45000-360) supplemented with 10% (V/V) FBS (Mediatech #35-01500), 1% Geneticin (Invitrogen #10131-027) and 0.2% Zeocin (Invitrogen #R250-05). The cells are spun down and re-suspended in growth media to a concentration of 4.8 E5 cells/mL. 25 microL of cell suspension is added to each well of a BD-384-well TC treated plate, providing 12,000 cells/well. The plate is incubated at 37° C./5% CO2 overnight. On the day of the assay, the plates are removed, the media is flicked out and 25 microL of Ca-4 dye in assay buffer (HBSS, 10 mM HEPES ph 7.4), containing 2 mM probenacid is added to each well. The cell assay plates are then incubated at 37° C./5% CO2 for one hour.
Test compounds are dissolved in DMSO and diluted to 1.045 mM in DMSO. Just prior to assay, 2.75 microL of appropriately diluted test compound are added to each well of a 384 well plate containing 45 microL of HBSS buffer. After mixing, 5 microL of diluted compound are added to each well of the cell assay plate for a final assay concentration of 10 microM. The plate is incubated at room temperature for 15 min. 10 microL of IP-10 stock solution in HBSS (4× EC80 concentration) are added to each well of the cell assay plate except those cells reserved as blank wells containing buffer only. Intracellular calcium flux is recorded on the HAMAMTSU FDSS6000, using excitation at 480 nm and emission at 540 nm. Data are analyzed using Activity Base software.
In general, the preferred potency range (IC50) of compounds in the above assay is between 1 nM to 3 μM, and the most preferred potency range is 1 nM to 20 nM.
Chain of CXCR3 (A0A2K5UV19 entry or part of it): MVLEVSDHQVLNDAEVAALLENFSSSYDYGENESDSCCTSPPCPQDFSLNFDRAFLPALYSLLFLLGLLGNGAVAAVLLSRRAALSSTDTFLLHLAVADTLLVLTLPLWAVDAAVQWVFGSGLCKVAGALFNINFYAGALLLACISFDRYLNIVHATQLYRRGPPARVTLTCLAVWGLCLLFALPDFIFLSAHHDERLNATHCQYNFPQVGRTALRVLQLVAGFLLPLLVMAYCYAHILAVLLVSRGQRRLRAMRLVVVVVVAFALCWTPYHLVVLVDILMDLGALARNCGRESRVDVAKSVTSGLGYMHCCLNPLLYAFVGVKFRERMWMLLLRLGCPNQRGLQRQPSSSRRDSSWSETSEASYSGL
What is called IC50 is the concentration that gives 50% inhibition. On to `Cc1cc(C)n(CC(=O)N2CCN(c3ccccc3C(=O)Nc3cc(C(C)(C)C)n[nH]3)CC2)n1` [N-(5-tert-Butyl-2H-pyrazol-3-yl)-2-{4-[2-(3,5-dimethyl-pyrazol-1-yl)-acetyl]-piperazin-1-yl}-benzamide], for which the IC50 turned out to be 4.8 nM.

Regarding `Cc1cc(C)n(CC(=O)N2CCN(c3ccccc3C(=O)Nc3cnc(C)c(F)c3)CC2)n1` [2-{4-[2-(3,5-Dimethyl-pyrazol-1-yl)-acetyl]-piperazin-1-yl}-N-(5-fluoro-6-methyl-pyridin-3-yl)-benzamide], the IC50 was 14 nM.

In the case of `Cc1nn(CC(=O)N2CCN(c3ncc(Cl)cc3NC(=O)c3cccc(C(F)(F)F)c3)CC2)c(C)c1Cl`, the IC50 amounted to 7.2 nM.

Turning to `COc1ccc(NC(=O)c2ccccc2N2CCN(C(=O)Cn3ccc4cccnc43)CC2)cn1` [N-(6-Methoxy-pyridin-3-yl)-2-[4-(2-pyrrolo[2,3-b]pyridin-1-yl-acetyl)-piperazin-1-yl]-benzamide], the IC50 is 5.7 nM.

On to `COc1cc(NC(=O)c2ccccc2N2CCN(C(=O)CN3CCCCC3=O)CC2)ccn1` [N-(2-Methoxy-pyridin-4-yl)-2-{4-[2-(2-oxo-piperidin-1-yl)-acetyl]-piperazin-1-yl}-benzamide], for which the IC50 was found to be 4.4 nM.

On to `Cc1cc(NC(=O)c2ccccc2N2CCN(C(=O)Cn3nc(C)cc3C)CC2)ccn1` [2-{4-[2-(3,5-Dimethyl-pyrazol-1-yl)-acetyl]-piperazin-1-yl}-N-(2-methyl-pyridin-4-yl)-benzamide], for which the IC50 came out at 12.5 nM.

On to `O=C(Nc1ccc(C(F)(F)F)nc1)c1ccccc1N1CCN(C(=O)Cn2ccc3cccnc32)CC1` [2-[4-(2-Pyrrolo[2,3-b]pyridin-1-yl-acetyl)-piperazin-1-yl]-N-(6-trifluoromethyl-pyridin-3-yl)-benzamide], for which the IC50 was 6.9 nM.

As for `Cc1cc(C)n(CC(=O)N2CCN(c3ccccc3C(=O)Nc3nc(-c4ccncc4)cs3)CC2)n1` [2-{4-[2-(3,5-Dimethyl-pyrazol-1-yl)-acetyl]-piperazin-1-yl}-N-(4-pyridin-4-yl-thiazol-2-yl)-benzamide], the IC50 is 13.5 nM.

With `COc1ccc(C(=O)NCC(=O)N2CCN(c3ccccc3C(=O)Nc3cccnc3)CC2)cc1C` [4-Methoxy-3-methyl-N-(2-oxo-2-{4-[2-(pyridin-3-ylcarbamoyl)-phenyl]-piperazin-1-yl}-ethyl)-benzamide], the IC50 is 11 nM.

For `Cc1cc(C)n(CC(=O)N2CCN(c3ccccc3C(=O)Nc3nc4c(s3)COCC4)CC2)n1` [N-(6,7-Dihydro-4H-pyrano[4,3-d]thiazol-2-yl)-2-{4-[2-(3,5-dimethyl-pyrazol-1-yl)-acetyl]-piperazin-1-yl}-benzamide], the IC50 turned out to be 8.6 nM.

Regarding `Cc1cc(C)n(CC(=O)N2CCN(c3ccccc3C(=O)Nc3ccnc(OCC(F)(F)F)c3)CC2)n1` [2-{4-[2-(3,5-Dimethyl-pyrazol-1-yl)-acetyl]-piperazin-1-yl}-N-[2-(2,2,2-trifluoro-ethoxy)-pyridin-4-yl]-benzamide], the IC50 amounted to 8.8 nM.

For the compound `O=C(NCC(=O)N1CCN(c2ccccc2C(=O)Nc2cccnc2)CC1)c1ccc2c(c1)OCO2` [Benzo[1,3]dioxole-5-carboxylic acid (2-oxo-2-{4-[2-(pyridin-3-ylcarbamoyl)-phenyl]-piperazin-1-yl}-ethyl)-amide], the IC50 stood at 13.3 nM.

Consider `O=C(NCC(=O)N1CCN(c2ccccc2C(=O)Nc2cccnc2)CC1)c1ccccc1` [2-[4-(2-Benzoylamino-acetyl)-piperazin-1-yl]-N-pyridin-3-yl-benzamide], for which the IC50 came out at 7.6 nM.

As for `COc1cc(NC(=O)c2ccccc2N2CCN(C(=O)Cn3nc(C)cc3C)[C@@H](C)C2)ccn1` [2-{(S)-4-[2-(3,5-Dimethyl-pyrazol-1-yl)-acetyl]-3-methyl-piperazin-1-yl}-N-(2-methoxy-pyridin-4-yl)-benzamide], the 50% inhibitory concentration (IC50) was 21 nM.

As for `Cc1cc(C)n(CC(=O)N2CCN(c3ncc(Cl)cc3NC(=O)c3cccc(Cl)c3)CC2)n1` [3-Chloro-N-(5-chloro-2-{4-[2-(3,5-dimethyl-pyrazol-1-yl)-acetyl]-piperazin-1-yl}-pyridin-3-yl)-benzamide], the half-maximal inhibitory concentration (IC50) came out at 11.5 nM.

As for `Cc1cc(C)n(CC(=O)N2CCN(c3ccccc3C(=O)Nc3ccnc(Cl)c3)CC2)n1` [N-(2-Chloro-pyridin-4-yl)-2-{4-[2-(3,5-dimethyl-pyrazol-1-yl)-acetyl]-piperazin-1-yl}-benzamide], the IC50 was found to be 7.2 nM.

For the compound `COc1ccc(C(=O)NCC(=O)N2CCN(c3ccccc3C(=O)Nc3ccncc3)CC2)cc1F` [3-Fluoro-4-methoxy-N-(2-oxo-2-{4-[2-(pyridin-4-ylcarbamoyl)-phenyl]-piperazin-1-yl}-ethyl)-benzamide], the IC50 worked out at 4.2 nM.

For `Cc1cc(C)n(CC(=O)N2CCN(c3ccccc3C(=O)Nc3ccc(C#N)nc3)CC2)n1` [N-(6-Cyano-pyridin-3-yl)-2-{4-[2-(3,5-dimethyl-pyrazol-1-yl)-acetyl]-piperazin-1-yl}-benzamide], the IC50 turned out to be 4.2 nM.

As to `Cc1nn(-c2ccccc2)c(C)c1CC(=O)N1CCN(c2ccccc2C(=O)Nc2ccncc2)CC1` [2-{4-[2-(3,5-Dimethyl-1-phenyl-1H-pyrazol-4-yl)-acetyl]-piperazin-1-yl}-N-pyridin-4-yl-benzamide], the IC50 worked out at 16 nM.

Turning to `O=C(Nc1cc(Cl)cnc1N1CCCN(C(=O)CN2CCCCC2)CC1)c1cccc(Cl)c1` [3-Chloro-N-{5-chloro-2-[4-(2-piperidin-1-yl-acetyl)-[1,4]diazepan-1-yl]-pyridin-3-yl}-benzamide], the IC50 came to 3 nM.

For `O=C(Nc1cc(Cl)cnc1N1CCN(C(=O)CN2CCCCC2=O)CC1)c1cccc(Cl)c1` [3-Chloro-N-(5-chloro-2-{4-[2-(2-oxo-piperidin-1-yl)-acetyl]-piperazin-1-yl}-pyridin-3-yl)-benzamide], the IC50 was found to be 7.7 nM.

As to `Cc1cc(C)n(CC(=O)N2CCN(c3ccc(Cl)cc3C(=O)Nc3nc4c(s3)CN(C)CC4)CC2)n1` [5-Chloro-2-{4-[2-(3,5-dimethyl-pyrazol-1-yl)-acetyl]-piperazin-1-yl}-N-(5-methyl-4,5,6,7-tetrahydro-thiazolo[5,4-c]pyridin-2-yl)-benzamide], the 50% inhibitory concentration (IC50) came to 15 nM.

As for `Cc1cncc(NC(=O)c2ccccc2N2CCN(C(=O)Cn3nc(C)cc3C)CC2)c1` [2-{4-[2-(3,5-Dimethyl-pyrazol-1-yl)-acetyl]-piperazin-1-yl}-N-(5-methyl-pyridin-3-yl)-benzamide], the IC50 amounted to 5.1 nM.

As for `Cc1cn(CC(=O)N2CCN(c3ccccc3C(=O)Nc3ccccc3)CC2)c(C)n1` [2-{4-[2-(2,4-Dimethyl-imidazol-1-yl)-acetyl]-piperazin-1-yl}-N-phenyl-benzamide], the IC50 is 5 nM.

In the case of `CN1CCc2nc(NC(=O)c3cc(F)ccc3N3CCN(C(=O)CN4Cc5ccccc5C4=O)CC3)sc2C1` [5-Fluoro-N-(5-methyl-4,5,6,7-tetrahydro-thiazolo[5,4-c]pyridin-2-yl)-2-{4-[2-(1-oxo-1,3-dihydro-isoindol-2-yl)-acetyl]-piperazin-1-yl}-benzamide], the IC50 stood at 8.1 nM.

Turning to `CN(CC(=O)N1CCN(c2ccccc2C(=O)Nc2ccncc2)CC1)C(=O)c1cccn1C` [1-Methyl-1H-pyrrole-2-carboxylic acid methyl-(2-oxo-2-{4-[2-(pyridin-4-ylcarbamoyl)-phenyl]-piperazin-1-yl}-ethyl)-amide], the IC50 amounted to 6.5 nM.

Take `Cc1cc(C)n(CC(=O)N2CCN(c3ccccc3C(=O)Nc3nc(C(C)(C)C)cs3)CC2)n1` [N-(4-tert-Butyl-thiazol-2-yl)-2-{4-[2-(3,5-dimethyl-pyrazol-1-yl)-acetyl]-piperazin-1-yl}-benzamide]: the IC50 is 15 nM.

In the case of `Cc1cc(C)n(CC(=O)N2CCN(c3ccccc3C(=O)Nc3nc(C)c(C(C)(C)C)s3)CC2)n1` [N-(5-tert-Butyl-4-methyl-thiazol-2-yl)-2-{4-[2-(3,5-dimethyl-pyrazol-1-yl)-acetyl]-piperazin-1-yl}-benzamide], the IC50 is 11 nM.

With `Cn1cccc1C(=O)NCC(=O)N1CCN(c2ccccc2C(=O)Nc2cccnc2)CC1` [1-Methyl-1H-pyrrole-2-carboxylic acid (2-oxo-2-{4-[2-(pyridin-3-ylcarbamoyl)-phenyl]-piperazin-1-yl}-ethyl)-amide], the IC50 worked out at 12 nM.

On to `Cc1cc(C)n(CC(=O)N2CCN(c3ccccc3C(=O)Nc3cc(C(C)(C)C)ns3)CC2)n1` [N-(3-tert-Butyl-isothiazol-5-yl)-2-{4-[2-(3,5-dimethyl-pyrazol-1-yl)-acetyl]-piperazin-1-yl}-benzamide], for which the IC50 is 10 nM.

For `Cc1cc(C)n(CC(=O)N2CCN(c3ccccc3C(=O)Nc3cnc4c(c3)c(C)nn4C)CC2)n1` [N-(1,3-Dimethyl-1H-pyrazolo[3,4-b]pyridin-5-yl)-2-{4-[2-(3,5-dimethyl-pyrazol-1-yl)-acetyl]-piperazin-1-yl}-benzamide], the IC50 worked out at 8.7 nM.

(Values after patent publication US8362249B2, “CXCR3 receptor antagonists” (Boehringer Ingelheim International GmbH, priority 2009, dated 2013).)
